Columns and labels:
[1] = system: Eotaxin-3 release in human whole blood stimulated with IL-4; assay: Human Whole Blood Eotaxin-3 Assay (IL-4 stimulated eotaxin-3 release); type: cell-based; conditions: IL-4 stimulation, 48 h, values given for compounds with >80% Emax, geometric mean
Procedure, shortened: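 Eotaxin-3 (CCL26) release measured by MSD kit in plasma supernatant after 48 h IL-4 stimulation ([…]) of human whole blood. Compounds added in triplicate 4-fold dilutions 2 h before stimulation; 0.5% DMSO final, 37° C, 5% CO2.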

STAT6 = target: T1, STAT6 (Homo sapiens, UniProt P42226); assay: Stat6 Degrader Assay (HiBiT based, HeLa LgBiT clone 4.14); type: cell-based; conditions: HeLa LgBiT clone 4.14 HiBiT-STAT6, 4-24 h incubation; values given for compounds with >80% Emax; geometric mean; read-out: STAT6 degradation DC50
T1 construct: These cells express endogenous STAT6; host or cells: HeLa LgBiT clone 4.14
T1 sequence (P42226 1-847): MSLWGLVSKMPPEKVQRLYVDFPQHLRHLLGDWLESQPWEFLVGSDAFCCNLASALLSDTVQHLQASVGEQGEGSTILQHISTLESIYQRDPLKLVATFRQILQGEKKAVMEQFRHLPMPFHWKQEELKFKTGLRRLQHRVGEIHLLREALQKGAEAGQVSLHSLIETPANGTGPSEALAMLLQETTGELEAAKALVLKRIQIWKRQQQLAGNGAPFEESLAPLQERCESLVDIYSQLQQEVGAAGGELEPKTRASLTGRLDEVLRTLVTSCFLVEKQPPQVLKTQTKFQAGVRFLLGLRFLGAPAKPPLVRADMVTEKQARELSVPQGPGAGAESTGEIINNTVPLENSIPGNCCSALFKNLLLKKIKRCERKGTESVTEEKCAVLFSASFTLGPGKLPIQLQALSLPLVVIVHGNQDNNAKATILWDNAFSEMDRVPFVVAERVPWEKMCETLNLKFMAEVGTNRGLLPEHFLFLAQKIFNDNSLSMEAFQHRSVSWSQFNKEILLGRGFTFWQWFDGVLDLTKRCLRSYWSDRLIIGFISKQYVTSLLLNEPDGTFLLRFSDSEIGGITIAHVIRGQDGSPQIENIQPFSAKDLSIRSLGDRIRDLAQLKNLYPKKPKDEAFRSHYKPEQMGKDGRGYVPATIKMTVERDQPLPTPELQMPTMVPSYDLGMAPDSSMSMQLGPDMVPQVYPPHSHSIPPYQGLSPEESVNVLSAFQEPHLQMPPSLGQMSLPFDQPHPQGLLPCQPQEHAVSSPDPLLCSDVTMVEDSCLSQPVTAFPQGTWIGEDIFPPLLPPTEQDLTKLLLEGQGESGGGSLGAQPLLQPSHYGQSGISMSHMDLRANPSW
Procedure, shortened: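 Luminescence from HiBiT-STAT6 complementing stably expressed LgBiT in HeLa clone 4.14 reports remaining STAT6 protein. Cells (5000/well) exposed to compound for 4-24 h at 37° C; read 0.5 h after Nano-Glo addition. 100% degradation window set with 50 μM terfenadine; percent degradation plotted against concentration.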

Row | Structure (SMILES) | EC50 [1] [nM] | DC50 (STAT6) [nM]
1 | CNc1cc(=O)n(-c2ccnc3c2cc([C@H](C)N2CCC(c4ccc(C(=O)N5CCC(CN6CCN(Cc7ccc8c(c7)C7(CC7)C(=O)N8[C@H]7CCC(=O)NC7=O)C[C@@H]6C)CC5)cc4)CC2)n3C)cc1F (single isomer, unassigned) [Example 3u37] | 1.7 | 0.5
2 | CNc1nc(=O)n(-c2ccnc3c2cc(CN2CCC(c4c(F)cc(C(=O)N5CCC(CN6CCN(Cc7ccc8c(c7)C7(CC7)C(=O)N8C7CCC(=O)NC7=O)C[C@@H]6C)CC5)cc4F)CC2)n3C)cc1F (stereo partly drawn) [Example 3h10, 3-(5′-(((S)-4-((1-(3,5-difluoro-4-(1-((4-(5-fluoro-4-(methylamino)-2-oxopyrimidin-1 (2H)-yl)-1-methyl-1H-pyrrolo[2,3-b]pyridin-2-yl)methyl)piperidin-4-yl)benzoyl)piperidin-4-yl)methyl)-3-methylpiperazin-1-yl)methyl)-2′-oxospiro[cyclopropane-1,3′-indolin]-1′-yl)piperidine-2,6-dione] | 4.8 | 3.2
3 | CNc1ccn(-c2ccnc3c2cc([C@H](C)N2CC=C(c4c(C)cc(C(=O)N5CCn6nc(CN7CCC(c8ccc9c(c8)n(C8CC8)c(=O)n9C8CCC(=O)NC8=O)CC7)cc6C5)cc4F)CC2)n3C)c(=O)c1 (stereo partly drawn) [Example 3u254, 3-(3-cyclopropyl-5-(1-((5-(3-fluoro-5-methyl-4-(1-((S)-1-(1-methyl-4-(4-(methylamino)-2-oxopyridin-1 (2H)-yl)-1H-pyrrolo[2,3-b]pyridin-2-yl)ethyl)-1,2,3,6-tetrahydropyridin-4-yl)benzoyl)-4,5,6,7-tetrahydropyrazolo[1,5-a]pyrazin-2-yl)methyl)piperidin-4-yl)-2-oxo-2,3-dihydro-1H-benzo[d]imidazol-1-yl)piperidine-2,6-dione] | 0.2 | 0.4
4 | CNc1ccn(-c2ccnc3c2cc([C@H](C)N2CCC(c4ccc(C(=O)N5CCC(CN6CCN(Cc7ccc8c(c7)n(C)c(=O)n8C7CCC(=O)NC7=O)C[C@@H]6C)CC5)cc4)CC2)n3C)c(=O)c1 (stereo partly drawn) [Example 3e39, 3-(3-methyl-5-(((S)-3-methyl-4-((1-(4-(1-((S)-1-(1-methyl-4-(4-(methylamino)-2-oxopyridin-1 (2H)-yl)-1H-pyrrolo[2,3-b]pyridin-2-yl)ethyl)piperidin-4-yl)benzoyl)piperidin-4-yl)methyl)piperazin-1-yl)methyl)-2-oxo-2,3-dihydro-1H-benzo[d]imidazol-1-yl)piperidine-2,6-dione] | 0.5 | 0.5
5 | C[C@H]1CN(Cc2ccc3c(c2)C(C)(C)C(=O)N3C2CCC(=O)NC2=O)CCN1CC1CCN(C(=O)c2cc(F)c(C3CCN(Cc4cc5c(-n6ccc7c(c6=O)CCN7)ccnc5n4C)CC3)c(F)c2)CC1 (stereo partly drawn) [Example 3u86, 3-(5-(((S)-4-((1-(3,5-difluoro-4-(1-((1-methyl-4-(4-oxo-1,2,3,4-tetrahydro-5H-pyrrolo[3,2-c]pyridin-5-yl)-1H-pyrrolo[2,3-b]pyridin-2-yl)methyl)piperidin-4-yl)benzoyl)piperidin-4-yl)methyl)-3-methylpiperazin-1-yl)methyl)-3,3-dimethyl-2-oxoindolin-1-yl)piperidine-2,6-dione] | 5.1 | 3.4
6 | CNc1ccn(-c2ccnc3c2cc([C@H](C)N2CC=C(c4c(C)cc(C(=O)N5CCC(CN6CCN(c7ccc8c(c7)n(C7CC7)c(=O)n8[C@H]7CCC(=O)NC7=O)CC6)CC5)cc4F)CC2)n3C)c(=O)c1 (single isomer, unassigned) [Example 3u279] | 1.7 | 1.4
7 | CNc1cc(=O)n(-c2ccnc3c2cc([C@H](C)N2CC=C(c4c(C)cc(C(=O)N5CCC(CN6CCN(c7ccc8c(c7)C7(CC7)C(=O)N8C7CCC(=O)NC7=O)CC6)CC5)cc4F)CC2)n3C)cc1F (stereo partly drawn) [Example 3u302, 3-(5′-(4-((1-(3-fluoro-4-(1-((S)-1-(4-(5-fluoro-4-(methylamino)-2-oxopyridin-1 (2H)-yl)-1-methyl-1H-pyrrolo[2,3-b]pyridin-2-yl)ethyl)-1,2,3,6-tetrahydropyridin-4-yl)-5-methylbenzoyl)piperidin-4-yl)methyl)piperazin-1-yl)-2′-oxospiro[cyclopropane-1,3′-indolin]-1′-yl)piperidine-2,6-dione] | 29.2 | 4.9
8 | CNc1ccn(-c2ccnc3c2cc([C@H](C)N2CCC(c4c(F)cc(C(=O)N5CCC(CN6CCN(Cc7ccc8c(c7)C(C)(C)C(=O)N8C7CCC(=O)NC7=O)C[C@@H]6C)CC5)cc4F)CC2)n3C)c(=O)c1 (stereo partly drawn) [Example 3u80, 3-(5-(((S)-4-((1-(3,5-difluoro-4-(1-((S)-1-(1-methyl-4-(4-(methylamino)-2-oxopyridin-1 (2H)-yl)-1H-pyrrolo[2,3-b]pyridin-2-yl)ethyl)piperidin-4-yl)benzoyl)piperidin-4-yl)methyl)-3-methyl-piperazin-1-yl)methyl)-3,3-dimethyl-2-oxoindolin-1-yl)piperidine-2,6-dione] | 5 | 0.8
9 | CNc1ccn(-c2ccnc3c2cc([C@H](C)N2CC=C(c4c(F)cc(C(=O)N5CCC(CN6CCN(Cc7ccc8c(c7)C(C)(C)C(=O)N8[C@@H]7CCC(=O)NC7=O)C[C@@H]6C)CC5)cc4F)CC2)n3C)c(=O)c1 (single isomer, unassigned) [Example 3u203] | 5.2 | 3.4
10 | CNc1ccn(-c2ccnc3c2cc([C@H](C)N2CC=C(c4c(C)cc(C(=O)N(C)c5ccc(C6CCN(Cc7ccc8c(c7)n(C)c(=O)n8C7CCC(=O)NC7=O)CC6)nc5)cc4F)CC2)n3C)c(=O)c1 (stereo partly drawn) [Example 3u231, N-(6-(1-((1-(2,6-dioxopiperidin-3-yl)-3-methyl-2-oxo-2,3-dihydro-1H-benzo[d]-imidazol-5-yl)methyl)piperidin-4-yl)pyridin-3-yl)-3-fluoro-N,5-dimethyl-4-(1-((S)-1-(1-methyl-4-(4-(methylamino)-2-oxopyridin-1 (2H)-yl)-1H-pyrrolo[2,3-b]pyridin-2-yl)ethyl)-1,2,3,6-tetrahydropyridin-4-yl)benzamide] | 0.8 | 0.1
11 | CNc1cc(=O)n(-c2ccnc3c2cc([C@H](C)N2CC=C(c4c(C)cc(C(=O)N5CCC(CN6CCN(Cc7cc8c(cc7F)N(C7CCC(=O)NC7=O)C(=O)C87CC7)CC6)CC5)cc4F)CC2)n3C)cc1F (stereo partly drawn) [Example 3u152, 3-(6′-fluoro-5′-((4-((1-(3-fluoro-4-(1-((S)-1-(4-(5-fluoro-4-(methylamino)-2-oxopyridin-1 (2H)-yl)-1-methyl-1H-pyrrolo[2,3-b]pyridin-2-yl)ethyl)-1,2,3,6-tetrahydropyridin-4-yl)-5-methylbenzoyl)piperidin-4-yl)methyl)piperazin-1-yl)methyl)-2′-oxospiro[cyclopropane-1,3′-indolin]-1′-yl)piperidine-2,6-dione] | 13.2 | 6.6
12 | CNc1cc(=O)n(-c2ccnc3c2cc([C@H](C)N2CC=C(c4c(C)cc(C(=O)N5CCC(CN6CCN(Cc7ccc8c(c7)n(C7CC7)c(=O)n8[C@@H]7CCC(=O)NC7=O)C[C@@H]6C)CC5)cc4F)CC2)n3C)cc1F (single isomer, unassigned) [Example 3u120] | 3.7 | 1
13 | CNc1cc(=O)n(-c2ccnc3c2cc(CN2CC=C(c4c(F)cc(C(=O)N5CCC(CN6CCN(Cc7ccc8c(c7)n(C7CC7)c(=O)n8[C@@H]7CCC(=O)NC7=O)C[C@@H]6C)CC5)cc4F)CC2)n3C)cc1F (single isomer, unassigned) [Example 3u215] | 5.6 | 3.5

— US20250320206A1, “STAT6 DEGRADERS” (Gilead Sciences, Inc., priority 2024, published 2025)
